Patent US20240400606A1, “SMALL MOLECULE ACTIVATORS OF THE IMMUNE SYSTEM” (THE BOARD OF TRUSTEES OF THE UNIVERSITY OF ILLINOIS, priority 2021, published 2024)

The compounds below were run on whole cell CS levels in MCF-7 (assay: Whole cell cholesterol sulfate quantification, MCF-7). Settings: MCF-7, 6.25 μM compound, 72 hours.
Format: cell-based, human
Method: (§1) General Whole Cell Cholesterol Sulfate Quantification. 60×15 mm tissue culture dishes were seeded with MCF-7 at 2×10^6 cells/dish or T47D at 1×10^6 cells per dish, 5 mL total media volume, and allowed to adhere overnight. Compounds of interest were dissolved in DMSO. Cells were treated with 25 μL 1.25 mM compound of interest stock (6.25 μM final compound concentration, 0.5% final DMSO concentration) or DMSO for 72 hours. To harvest, media was aspirated, and cells were washed once with PBS before detaching with trypsin. Trypsin was quenched with media. Cells were centrifuged at 300 xg for 3 minutes and supernatant was discarded. Cells were resuspended in media and counted using a Countess 3 automated cell counter (Thermo Fisher Scientific). 1.5×10^6 cells were collected, washed twice with 1 mL PBS, then pelleted and stored at −80° C. until lysis. Cell pellets were resuspended in 200 μL cold 70:30 methanol:water and placed on ice. Cell suspension was sonicated on ice (30%, 10 s on, 20 s off, 1 min total) and continued to be incubated on ice for 30 minutes. Lysate was clarified by centrifugation at 14,100 xg at 4° C. for 30 minutes. 100 μL of supernatant was transferred to an empty Eppendorf tube and submitted for LC-MS/MS quantification (UIUC Metabolomics Center), along with 5 mM cholesterol sulfate sodium salt standard.
as §1, with “Time Course Whole Cell” for “General Whole Cell”, “2×10^6 cells/dish per dish,” for “2×10^6 cells/dish or T47D at 1×10^6 cells per dish,”, “DMSO for 0 (harvested immediately), 4, 8, 24, 48, or 72 hours.” for “DMSO for 72 hours.”
Whole Cell Cholesterol Sulfate Quantification with Compound Removal. 60×15 mm tissue culture dishes were seeded with MCF-7 at 2×10^6 cells/dish, 5 mL total media volume, and allowed to adhere overnight. Compounds of interest were dissolved in DMSO. Cells were treated with 25 μL 1.25 mM compound of interest stock (6.25 μM final compound concentration, 0.5% final DMSO concentration) for 0 hours (harvested immediately) or 24 hours. Media was aspirated and replaced with 5 mL fresh media, then cells were either harvested (24 hour time point) or further incubated. To harvest, media was aspirated, and cells were washed once with PBS before detaching with trypsin. Trypsin was quenched with media. Cells were centrifuged at 300 xg for 3 minutes and supernatant was discarded. Cells were resuspended in media and counted using a Countess 3 automated cell counter (Thermo Fisher Scientific). 1.5×10^6 cells were collected, washed twice with 1 mL PBS, then pelleted and stored at −80° C. until lysis. Cell pellets were resuspended in 200 μL cold 70:30 methanol:water and placed on ice. Cell suspension was sonicated on ice (30%, 10 s on, 20 s off, 1 min total) and continued to be incubated on ice for 30 minutes. Lysate was clarified by centrifugation at 14,100 xg at 4° C. for 30 minutes. […]

With `CN1C(=O)CC[C@@]2(C)C1=CC[C@@H]1[C@@H]2C(=O)C[C@]2(C)C(=O)CC[C@@H]12` [Compound 6, (4aR,4bS,6aS,9aS,9bS)-1,4a,6a-trimethyl-3,4,4a,6,6a,8,9,9a,9b,10-decahydro-1H-indeno[5,4-f]quinoline-2,5,7(4bH)-trione] the “whole cell CS levels vs DMSO” value was “not seen”.

Same assay, conditions: MCF-7, sub-lethal 0.156 μM, 72 hours

`O=CC1(C2(C=O)c3ccccc3-c3ccccc32)c2ccccc2-c2ccccc21` [Raptinal, reference compound] was tested, and the “whole cell CS levels vs DMSO” value was “no significant difference”.

Each compound was assayed against SULT2B1b (Homo sapiens (Human), UniProt O00204) (assay: LC-MS/MS based in vitro assay (DHEA-sulfate formation)). Settings: 100 μM compound, 2 hours; mean±s.e.m., n=3.
Sequence of SULT2B1b (O00204 whole entry): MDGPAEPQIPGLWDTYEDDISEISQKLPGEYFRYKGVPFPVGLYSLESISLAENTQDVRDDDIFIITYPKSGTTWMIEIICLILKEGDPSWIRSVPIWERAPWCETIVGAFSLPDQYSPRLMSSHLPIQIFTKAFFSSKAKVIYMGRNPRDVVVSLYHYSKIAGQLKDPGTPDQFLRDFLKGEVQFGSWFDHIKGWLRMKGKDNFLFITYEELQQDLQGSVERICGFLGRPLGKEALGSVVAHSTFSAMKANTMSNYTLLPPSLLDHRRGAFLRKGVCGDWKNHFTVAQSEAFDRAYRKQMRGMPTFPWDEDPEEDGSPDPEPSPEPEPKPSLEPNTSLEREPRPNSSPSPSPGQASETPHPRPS
Format: biochemical
Method: LC-MS/MS Based In Vitro Assay. Stock solutions of DHEA (5 mM in DMSO) and compound of interest (5 mM in DMSO) were prepared. […] SULT2B1b was diluted to 1.5 μg/μL in protein storage buffer then down to 0.8 μg/μL in 1× activity assay buffer. 30 μL of 0.8 μg/μL SULT2B1b was added to each reaction. Reactions were incubated for 2 hours at 37° C. with shaking at 250 rpm. To quench, 30 μL reaction mix was added to 30 μL ice cold 0.5% HCl in MeCN, then centrifuged at 13,000 xg at room temperature for 3 min. 50 μL supernatant was transferred to an empty Eppendorf tube and submitted for LC-MS/MS quantification (UIUC Metabolomics Center), along with 5 mM DHEA sulfate standard. Controls: Reaction mix made with DHEA and DMSO in place of compound of interest (DHEA control). […] General LC-MS/MS Quantification Method. Both DHEAS and CS samples were analyzed by 6500 QTRAP (Sciex, Redwood City, CA) liquid chromatography-tandem mass spectrometry. […] The flow rate was 0.3 mL/min. […] The source temperature was 400° C. […] Cholesterol-sulfate and DHEA-sulfate were detected by multiple reaction monitoring (MRM) at m/z 465→97.0 and 367.0→97.0 respectively. Software Analyst 1.7.1 ([…]) was used for data acquisition and analysis.

Point of comparison: `C[C@]12CCC(=O)N(CC3CCCCC3)C1=CC[C@@H]1[C@@H]2C(=O)C[C@]2(C)C(=O)CC[C@@H]12` [Compound 14, (4aR,4bS, 6aS, 9aS, 9bS)-1-(cyclohexylmethyl)-4a, 6a-dimethyl-3,4,4a, 6,6a, 8,9,9a, 9b,10-decahydro-1H-indeno[5,4-f]quinoline-2,5,7(4bH)-trione], inhibition at 100 µM 48 ± 2%. Against it:
- C[C@]12CCC(=O)N(Cc3ccc(F)cc3)C1=CC[C@@H]1[C@@H]2C(=O)C[C@]2(C)C(=O)CC[C@@H]12 [Compound 4, (4aR,4bS,6aS,9aS,9bS)-1-(4-fluorobenzyl)-4a,6a-dimethyl-3,4,4a,6,6a,8,9,9a,9b,10-decahydro-1H-indeno[5,4-f]quinoline-2,5,7(4bH)-trione] — higher, 55 ± 2%
- C[C@]12CCC(=O)N(Cc3ccccc3)C1=CC[C@@H]1[C@@H]2C(=O)C[C@]2(C)C(=O)CC[C@@H]12 [Compound 5, (4aR,4bS,6aS,9aS,9bS)-1-benzyl-4a,6a-dimethyl-3,4,4a,6,6a,8,9,9a,9b,10-decahydro-1H-indeno[5,4-f]quinoline-2,5,7(4bH)-trione] — the same, 48 ± 2%
- CN1C(=O)CC[C@@]2(C)C1=CC[C@@H]1[C@@H]2C(=O)C[C@]2(C)C(=O)CC[C@@H]12 [Compound 6, (4aR,4bS,6aS,9aS,9bS)-1,4a,6a-trimethyl-3,4,4a,6,6a,8,9,9a,9b,10-decahydro-1H-indeno[5,4-f]quinoline-2,5,7(4bH)-trione] — lower, 8.8 ± 0.4%
- C[C@]12CCC(=O)N(Cc3cccc(Cl)c3)C1=CCC1[C@@H]2C(=O)C[C@]2(C)C(=O)CC[C@@H]12 (stereo partly drawn) [Compound 7, (4aR,4bS,6aS,9aS,9bS)-1-(3-chlorobenzyl)-4a,6a-imethy-3,4,4a,6,6a,8,9,9a,9b,10-decahydro-1H-indeno[5,4-f]quinoline-2,5,7(4bH)-trione] — higher, 69.8 ± 0.5%
- C[C@]12CCC(=O)N(Cc3ccccc3Cl)C1=CC[C@@H]1[C@@H]2C(=O)C[C@]2(C)C(=O)CC[C@@H]12 [Compound 8, (4aR,4bS,6aS,9aS,9bS)-1-(2-chlorobenzyl)-4a,6a-dimethyl-3,4,4a,6,6a,8,9,9a,9b,10-decahydro-1H-indeno[5,4-f]quinoline-2,5,7(4bH)-trione] — within error, 46 ± 1%
- C[C@]12CCC(=O)N(Cc3ccc(Cl)cc3)C1=CC[C@@H]1[C@@H]2CC[C@]2(C)C(=O)CC[C@@H]12 [Compound 9, (4aR,4bS,6aS,9aS,9bR)-1-(4-chlorobenzyl)-4a,6a-dimethyl-3,4,4a,4b,5,6,6a,8,9,9a,9b,10-dodecahydro-1H-indeno[5,4-f]quinoline-2,7-dione] — higher, 53 ± 1%
- C[C@]12CCC(=O)N(Cc3ccc(Cl)cc3)C1=CC[C@@H]1[C@@H]2C(=O)C[C@@]2(C)[C@H]1CCC21OCCO1 [Compound 10, (4aR,4bS,6aS,9aS,9bS)-1-(4-chlorobenzyl)-4a,6a-dimethyl-1,3,4,4a,4b,6,6a,8,9,9a,9b,10-dodecahydrospiro[indeno[5,4-f]quinoline-7,2′-[1,3]dioxolane]-2,5-dione] — within error, 45 ± 1%
- C[C@]12CCC(=O)N(Cc3ccc(Br)nc3)C1=CC[C@@H]1[C@@H]2C(=O)C[C@]2(C)C(=O)CC[C@@H]12 [Compound 11, (4aR,4bS,6aS,9aS,9bS)-1-((6-bromopyridin-3-yl)methyl)-4a,6a-dimethyl-3,4,4a,6,6a,8,9,9a,9b,10-decahydro-1H-indeno[5,4-f]quinoline-2,5,7(4bH)-trione] — higher, 53 ± 1%
- C[C@]12CCC(=O)N(Cc3ccc4ccccc4c3)C1=CC[C@@H]1[C@@H]2C(=O)C[C@]2(C)C(=O)CC[C@@H]12 [Compound 12, (4aR,4bS,6aS,9aS,9bS)-4a,6a-dimethyl-1-(naphthalen-2-ylmethyl)-3,4,4a,6,6a,8,9,9a,9b,10-decahydro-1H-indeno[5,4-f]quinoline-2,5,7(4bH)-trione] — within error, 52 ± 10%
- C[C@]12CCC(=O)N(CC3CC3)C1=CC[C@@H]1[C@@H]2C(=O)C[C@]2(C)C(=O)CC[C@@H]12 [Compound 13, (4aR,4bS,6aS,9aS,9bS)-1-(cyclopropylmethyl)-4a,6a-dimethyl-3,4,4a, 6,6a, 8,9,9a, 9b,10-decahydro-1H-indeno[5,4-f]quinoline-2,5,7(4bH)-trione] — lower, 27 ± 2%

The compounds below were run on free cholesterol levels in MCF-7 (assay: Whole cell cholesterol assay). Settings: MCF-7, 6.25 μM, 72 hours.
Format: cell-based, human
Method: Whole Cell Cholesterol Assay. Assay was run according to manufacturer's instructions. Briefly, 5000 MCF-7 cells were plated in 99 μL media in a 96-well plate and allowed to adhere overnight before DMSO solutions of compounds were added to each well. Final concentration of DMSO in each well is 1%, final volume: 100 μL. At the end of 72 hours, media was aspirated, and cells were washed twice with 100 μL PBS. 50 μL of cholesterol lysis solution was added and cells were incubated for 30 minutes at 37° C. 50 μL of sample was then transferred to a 96-well white walled assay plate. 50 μL of cholesterol detection reagent was added to all wells and incubated at room temperature for 1 hour. Luminescence was read using a SpectraMax M3 plate reader (Molecular Devices). Cholesterol levels were determined by use of a cholesterol standard curve.

For `CN1C(=O)CC[C@@]2(C)C1=CC[C@@H]1[C@@H]2C(=O)C[C@]2(C)C(=O)CC[C@@H]12` [Compound 6, (4aR,4bS,6aS,9aS,9bS)-1,4a,6a-trimethyl-3,4,4a,6,6a,8,9,9a,9b,10-decahydro-1H-indeno[5,4-f]quinoline-2,5,7(4bH)-trione], the “free cholesterol levels vs DMSO” value was “no statistical difference”.
